Experimental data from ChEMBL document CHEMBL1137932, “Synthesis of S-alkyl L-homocysteine analogues of glutathione and their kinetic studies with gamma-glutamyl transpeptidase” (Bioorg Med Chem Lett, 2004).

Experiments:
Format in all cases: tissue-based
[1] = target: T1, Glutathione hydrolase 1 proenzyme (Rattus norvegicus, UniProt P07314); assay: Compound tested for the inhibition of Gamma-glutamyltranspeptidase in rat kidney at pH 8.0 at 37 degree C (Competitive inhibition)
[2] = target: T1, Glutathione hydrolase 1 proenzyme; assay: Compound tested for the inhibition of Gamma-glutamyltranspeptidase in rat kidney at pH 8.0 at 37 degree C
[3] = target: T1, Glutathione hydrolase 1 proenzyme; assay: Compound tested for the inhibition of Gamma-glutamyltranspeptidase in rat kidney at pH 8.0 at 37 degree C; N/0=No inhibition observed up to 20 mM

T1 sequence (P07314 1-379 limits assumed): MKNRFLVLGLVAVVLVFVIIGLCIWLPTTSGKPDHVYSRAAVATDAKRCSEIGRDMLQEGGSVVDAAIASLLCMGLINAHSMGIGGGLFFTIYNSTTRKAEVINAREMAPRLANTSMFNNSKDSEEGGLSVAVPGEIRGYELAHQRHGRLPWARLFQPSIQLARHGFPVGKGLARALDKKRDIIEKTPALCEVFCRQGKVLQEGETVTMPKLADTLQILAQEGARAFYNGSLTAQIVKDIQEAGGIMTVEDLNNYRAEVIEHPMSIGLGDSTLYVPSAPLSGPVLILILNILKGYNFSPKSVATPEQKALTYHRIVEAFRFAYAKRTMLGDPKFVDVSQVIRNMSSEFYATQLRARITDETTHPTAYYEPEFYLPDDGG
T1 sequence (P07314 380-568 limits assumed): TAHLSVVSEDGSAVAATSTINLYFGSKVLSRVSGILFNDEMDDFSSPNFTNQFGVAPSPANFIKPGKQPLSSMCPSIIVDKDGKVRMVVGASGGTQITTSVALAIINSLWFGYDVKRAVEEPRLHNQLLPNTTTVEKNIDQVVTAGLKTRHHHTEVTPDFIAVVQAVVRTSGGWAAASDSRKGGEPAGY

Structure (SMILES)	Ki [1] [µM]	further results
N[C@@H](CC[S+]([O-])Cc1ccc(C(=O)NCC(=O)O)cc1)C(=O)O (some centres not stated)	230	
N[C@@H](CCS(=O)(=O)CCC(=O)NCC(=O)O)C(=O)O		Ki [2]: 3500 µM
CS(=O)(=O)CC[C@H](N)C(=O)O [METHIONINE SULFONE]		Ki [3]: No inhibition to 20mM
C[S+]([O-])CC[C@H](N)C(=O)O (some centres not stated) [METHIONINE SULFOXIDE]	5900	
CSCC[C@H](N)C(=O)O [METHIONINE]	26900	

Second part, led by results:

Ki [1] [µM]	Structure (SMILES)	further results
53	NC(CC[S+]([O-])CCC(=O)NCC(=O)O)C(=O)O (configuration not stated)	
520	N[C@@H](CCSCCC(=O)NCC(=O)O)C(=O)O	
